# Measured values: article PMC7525662, “Preclinical dosimetry models and the prediction of clinical doses of novel positron emission tomography radiotracers” (Scientific Reports, 2020)
# Marks after values point to notes of the source that are not given here.
# Tests used:
# Set-up in all cases: species or system Sprague–Dawley rats
# Settings in all cases: rat, in vivo
# [1] = Residence times normalised to human organ masses, FBP reconstruction
# Procedure: PET studies were reconstructed using filtered-back projection (FBP) and Mediso’s iterative Tera-Tomo 3D reconstruction algorithm with the following settings: 4 iterations, 6 subsets, full detector model, normal regularization, spike filter on, voxel size 0.4 mm and 400‒600 keV energy window. PET data were corrected for randoms, scatter and attenuation. Time-activity curves for each source organ, whole-body and remainder of the body were plotted. […] Residence times (τ) were determined for each radiotracer in source organs, whole-body and remaining (any activity assigned to the whole-body but not assigned to a source organ). Each preclinical source organ’s τ was determined by calculating the area under its respective time-activity curve (activity normalised to the percentage maximum injected dose as a function of time) using the trapezoid method. […] From each individual animal, eight dosimetry models were constructed from all possible combinations of image reconstruction method (FBP or iterative), τ (non-normalised or normalised to human organ masses), and sex of phantom (male or female). Supplementary table 1. Scaling (normalisation) factors applied to residence times of PET radiotracers in male Sprague-Dawley rats to predict human adult residence times. […] Stabin et al. 2006 ^4); WB: Whole Body.
# [2] = OLINDA/EXM predicted clinical doses: adult female phantom, normalised τ, FBP
# Procedure: (§1) PET studies were reconstructed using filtered-back projection (FBP) and Mediso’s iterative Tera-Tomo 3D reconstruction algorithm with the following settings: 4 iterations, 6 subsets, full detector model, normal regularization, spike filter on, voxel size 0.4 mm and 400‒600 keV energy window. PET data were corrected for randoms, scatter and attenuation. Time-activity curves for each source organ, whole-body and remainder of the body were plotted. […] Residence times (τ) were determined for each radiotracer in source organs, whole-body and remaining (any activity assigned to the whole-body but not assigned to a source organ). Each preclinical source organ’s τ was determined by calculating the area under its respective time-activity curve (activity normalised to the percentage maximum injected dose as a function of time) using the trapezoid method. […] From each individual animal, eight dosimetry models were constructed from all possible combinations of image reconstruction method (FBP or iterative), τ (non-normalised or normalised to human organ masses), and sex of phantom (male or female). Supplementary table 8. Predicted clinical absorbed organ doses and whole-body effective doses of PET radiotracers using normalised adult female source organ residence times from filtered backprojection reconstructions.
# [3] = OLINDA/EXM predicted clinical doses: adult male phantom, normalised τ, iterative
# Procedure: as §1, with “table 11.” for “table 8.”, “adult male” for “adult female”, “from iterative” for “from filtered backprojection”
# [4] = OLINDA/EXM predicted clinical doses: adult female phantom, non-normalised τ, FBP
# Procedure: as §1, with “table 6.” for “table 8.”, “using non-normalised (preclinical)” for “using normalised”
structure (smiles),measurement,setting,value
"O=C[C@H]([18F])[C@@H](O)[C@H](O)[C@H](O)CO [FDG, 2-deoxy-2-[^18F]fluoro-D-glucose]","Normalised Residence Time (h), Average: Remaining",[1],2.12 h
same,"Effective Dose (mSv/MBq), Average ± SD",[2],3.21E-02 mSv/MBq
same,"Estimated Absorbed Dose of Organ, Average: Adrenals",[2],1.55E-02 mGy/MBq
same,"Estimated Absorbed Dose of Organ, Average: Brain",[2],1.10E-02 mGy/MBq
same,"Estimated Absorbed Dose of Organ, Average: Breasts",[2],1.16E-02 mGy/MBq
same,"Estimated Absorbed Dose of Organ, Average: Gallbladder Wall",[2],1.48E-02 mGy/MBq
same,"Estimated Absorbed Dose of Organ, Average: Heart Wall",[2],4.52E-02 mGy/MBq
same,"Estimated Absorbed Dose of Organ, Average: Kidneys",[2],1.70E-02 § mGy/MBq
same,"Estimated Absorbed Dose of Organ, Average: LLI Wall",[2],1.07E-01 † mGy/MBq
same,"Estimated Absorbed Dose of Organ, Average: Liver",[2],1.01E-02 mGy/MBq
same,"Estimated Absorbed Dose of Organ, Average: Lungs",[2],1.82E-02 mGy/MBq
same,"Estimated Absorbed Dose of Organ, Average: Muscle",[2],1.40E-02 mGy/MBq
same,"Estimated Absorbed Dose of Organ, Average: Osteogenic Cells",[2],2.19E-02 mGy/MBq
same,"Estimated Absorbed Dose of Organ, Average: Ovaries",[2],2.42E-02 mGy/MBq
same,"Estimated Absorbed Dose of Organ, Average: Pancreas",[2],1.63E-02 mGy/MBq
same,"Estimated Absorbed Dose of Organ, Average: Red Marrow",[2],1.37E-02 mGy/MBq
same,"Estimated Absorbed Dose of Organ, Average: Skin",[2],1.06E-02 mGy/MBq
same,"Estimated Absorbed Dose of Organ, Average: Small Intestine",[2],1.83E-02 mGy/MBq
same,"Estimated Absorbed Dose of Organ, Average: Spleen",[2],1.51E-02 mGy/MBq
same,"Estimated Absorbed Dose of Organ, Average: Stomach Wall",[2],1.57E-02 mGy/MBq
same,"Estimated Absorbed Dose of Organ, Average: Thymus",[2],1.48E-02 mGy/MBq
same,"Estimated Absorbed Dose of Organ, Average: Thyroid",[2],1.27E-02 mGy/MBq
same,"Estimated Absorbed Dose of Organ, Average: Total Body",[2],1.46E-02 mGy/MBq
same,"Estimated Absorbed Dose of Organ, Average: ULI Wall",[2],1.75E-02 mGy/MBq
same,"Estimated Absorbed Dose of Organ, Average: Urinary Bladder Wall",[2],1.18E-01 ‡ mGy/MBq
same,"Estimated Absorbed Dose of Organ, Average: Uterus",[2],2.28E-02 mGy/MBq
same,Effective Dose,[3],2.46E-02 mSv/MBq
same,"Estimated Absorbed Dose of Organ, Adrenals",[3],9.55E-03 mGy/MBq
same,"Estimated Absorbed Dose of Organ, Brain",[3],1.47E-02 mGy/MBq
same,"Estimated Absorbed Dose of Organ, Breasts",[3],6.86E-03 mGy/MBq
same,"Estimated Absorbed Dose of Organ, Gallbladder Wall",[3],9.38E-03 mGy/MBq
same,"Estimated Absorbed Dose of Organ, Heart Wall",[3],8.18E-02 ‡ mGy/MBq
same,"Estimated Absorbed Dose of Organ, Kidneys",[3],2.30E-02 mGy/MBq
same,"Estimated Absorbed Dose of Organ, LLI Wall",[3],7.18E-02 § mGy/MBq
same,"Estimated Absorbed Dose of Organ, Liver",[3],9.11E-03 mGy/MBq
same,"Estimated Absorbed Dose of Organ, Lungs",[3],1.46E-02 mGy/MBq
same,"Estimated Absorbed Dose of Organ, Muscle",[3],8.37E-03 mGy/MBq
same,"Estimated Absorbed Dose of Organ, Osteogenic Cells",[3],1.16E-02 mGy/MBq
same,"Estimated Absorbed Dose of Organ, Pancreas",[3],1.00E-02 mGy/MBq
same,"Estimated Absorbed Dose of Organ, Red Marrow",[3],8.31E-03 mGy/MBq
same,"Estimated Absorbed Dose of Organ, Skin",[3],5.99E-03 mGy/MBq
same,"Estimated Absorbed Dose of Organ, Small Intestine",[3],1.15E-02 mGy/MBq
same,"Estimated Absorbed Dose of Organ, Spleen",[3],8.72E-03 mGy/MBq
same,"Estimated Absorbed Dose of Organ, Stomach Wall",[3],9.21E-03 mGy/MBq
same,"Estimated Absorbed Dose of Organ, Testes",[3],9.57E-03 mGy/MBq
same,"Estimated Absorbed Dose of Organ, Thymus",[3],9.60E-03 mGy/MBq
same,"Estimated Absorbed Dose of Organ, Thyroid",[3],7.39E-03 mGy/MBq
same,"Estimated Absorbed Dose of Organ, ULI Wall",[3],1.01E-02 mGy/MBq
same,"Estimated Absorbed Dose of Organ, Urinary Bladder Wall",[3],1.43E-01 † mGy/MBq
same,"Estimated Absorbed Dose, Total Body",[3],9.30E-03 mGy/MBq
same,"Effective Dose (mSv/MBq), Average ± SD",[4],7.08E-02 mSv/MBq
same,"Estimated Absorbed Dose of Organ, Average: Adrenals",[4],1.56E-02 mGy/MBq
same,"Estimated Absorbed Dose of Organ, Average: Brain",[4],5.39E-03 mGy/MBq
same,"Estimated Absorbed Dose of Organ, Average: Breasts",[4],1.10E-02 mGy/MBq
same,"Estimated Absorbed Dose of Organ, Average: Gallbladder Wall",[4],1.59E-02 mGy/MBq
same,"Estimated Absorbed Dose of Organ, Average: Heart Wall",[4],1.95E-02 mGy/MBq
same,"Estimated Absorbed Dose of Organ, Average: Kidneys",[4],2.28E-02 § mGy/MBq
same,"Estimated Absorbed Dose of Organ, Average: LLI Wall",[4],2.63E-01 † mGy/MBq
same,"Estimated Absorbed Dose of Organ, Average: Liver",[4],1.05E-02 mGy/MBq
same,"Estimated Absorbed Dose of Organ, Average: Lungs",[4],1.03E-02 mGy/MBq
same,"Estimated Absorbed Dose of Organ, Average: Muscle",[4],1.67E-02 mGy/MBq
same,"Estimated Absorbed Dose of Organ, Average: Osteogenic Cells",[4],2.29E-02 mGy/MBq
same,"Estimated Absorbed Dose of Organ, Average: Ovaries",[4],4.29E-02 mGy/MBq
same,"Estimated Absorbed Dose of Organ, Average: Pancreas",[4],1.65E-02 mGy/MBq
same,"Estimated Absorbed Dose of Organ, Average: Red Marrow",[4],1.64E-02 mGy/MBq
same,"Estimated Absorbed Dose of Organ, Average: Skin",[4],1.14E-02 mGy/MBq
same,"Estimated Absorbed Dose of Organ, Average: Small Intestine",[4],2.68E-02 mGy/MBq
same,"Estimated Absorbed Dose of Organ, Average: Spleen",[4],1.55E-02 mGy/MBq
same,"Estimated Absorbed Dose of Organ, Average: Stomach Wall",[4],1.66E-02 mGy/MBq
same,"Estimated Absorbed Dose of Organ, Average: Thymus",[4],1.38E-02 mGy/MBq
same,"Estimated Absorbed Dose of Organ, Average: Thyroid",[4],1.24E-02 mGy/MBq
same,"Estimated Absorbed Dose of Organ, Average: Total Body",[4],1.72E-02 mGy/MBq
same,"Estimated Absorbed Dose of Organ, Average: ULI Wall",[4],2.24E-02 mGy/MBq
same,"Estimated Absorbed Dose of Organ, Average: Urinary Bladder Wall",[4],4.48E-01 ‡ mGy/MBq
same,"Estimated Absorbed Dose of Organ, Average: Uterus",[4],4.34E-02 mGy/MBq
